In US12264156B2, “Compounds and pharmaceutical compositions thereof for the treatment of diseases” (GALAPAGOS NV, priority 2018, dated 2025):

Experiments:
Format in all cases: biochemical
Conditions in all cases: ADP-Glo SIK kinase assay
SIK2 = biological target: T1, SIK2 (Homo sapiens, UniProt Q9H0K1); test: ADP-Glo kinase assay, SIK2
T1 construct: purchased ThermoFisher Scientific PV4792
In short: (§1)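 Enzyme–substrate mix was started with ATP and incubated 120 min at RT. ADP formed was quantified by ADP-Glo: 40 min ATP depletion, then 30 min detection reagent converting ADP to ATP for luciferase luminescence, which rises with kinase activity. Controls: 1% DMSO and 10 μM staurosporine (final).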

SIK3 = biological target: T2, SIK3 (Homo sapiens, UniProt Q9Y2K2); test: ADP-Glo kinase assay, SIK3
T2 construct: purchased SignalChem S12-11G-100
T2 sequence (Q9Y2K2 whole entry): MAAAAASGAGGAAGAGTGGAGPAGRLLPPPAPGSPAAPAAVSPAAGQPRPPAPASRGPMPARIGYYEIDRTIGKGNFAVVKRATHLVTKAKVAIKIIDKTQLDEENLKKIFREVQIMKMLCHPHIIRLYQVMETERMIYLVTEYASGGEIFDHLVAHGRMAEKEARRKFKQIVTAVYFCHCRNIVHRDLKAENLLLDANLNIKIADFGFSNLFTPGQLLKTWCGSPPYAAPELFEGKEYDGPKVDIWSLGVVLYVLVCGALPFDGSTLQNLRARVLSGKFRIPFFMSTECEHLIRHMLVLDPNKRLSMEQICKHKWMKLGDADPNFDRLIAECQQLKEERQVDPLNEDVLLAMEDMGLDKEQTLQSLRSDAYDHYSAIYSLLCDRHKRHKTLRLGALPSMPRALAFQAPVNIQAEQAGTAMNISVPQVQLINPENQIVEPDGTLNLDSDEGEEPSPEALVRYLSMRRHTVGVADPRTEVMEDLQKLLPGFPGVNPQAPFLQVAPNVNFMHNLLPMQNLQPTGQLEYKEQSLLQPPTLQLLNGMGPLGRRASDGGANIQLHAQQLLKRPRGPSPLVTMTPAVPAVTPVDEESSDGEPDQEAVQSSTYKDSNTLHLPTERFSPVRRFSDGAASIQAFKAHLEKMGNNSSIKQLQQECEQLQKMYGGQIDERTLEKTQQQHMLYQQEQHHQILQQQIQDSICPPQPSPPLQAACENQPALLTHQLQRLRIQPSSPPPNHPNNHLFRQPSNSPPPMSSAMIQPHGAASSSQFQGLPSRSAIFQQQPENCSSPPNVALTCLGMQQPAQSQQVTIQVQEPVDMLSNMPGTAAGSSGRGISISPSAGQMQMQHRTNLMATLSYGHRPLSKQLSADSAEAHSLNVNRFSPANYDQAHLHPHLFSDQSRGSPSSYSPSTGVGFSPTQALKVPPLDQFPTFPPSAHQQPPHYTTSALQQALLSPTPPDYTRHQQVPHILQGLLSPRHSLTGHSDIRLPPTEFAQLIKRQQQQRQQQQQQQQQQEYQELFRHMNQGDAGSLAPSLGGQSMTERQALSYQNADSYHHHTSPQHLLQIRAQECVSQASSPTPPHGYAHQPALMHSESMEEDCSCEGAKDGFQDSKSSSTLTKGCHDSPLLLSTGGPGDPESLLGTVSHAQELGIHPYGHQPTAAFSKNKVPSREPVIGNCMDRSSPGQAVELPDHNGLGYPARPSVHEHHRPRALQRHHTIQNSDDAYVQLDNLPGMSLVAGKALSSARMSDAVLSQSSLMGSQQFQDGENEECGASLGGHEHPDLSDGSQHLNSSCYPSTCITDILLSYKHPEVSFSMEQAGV
In short: as §1

SIK1 = biological target: T3, SIK1 (Homo sapiens, UniProt P57059); test: ADP-Glo kinase assay, SIK1
T3 construct: purchased Carna Biosciences 02-131
T3 sequence (P57059 whole entry): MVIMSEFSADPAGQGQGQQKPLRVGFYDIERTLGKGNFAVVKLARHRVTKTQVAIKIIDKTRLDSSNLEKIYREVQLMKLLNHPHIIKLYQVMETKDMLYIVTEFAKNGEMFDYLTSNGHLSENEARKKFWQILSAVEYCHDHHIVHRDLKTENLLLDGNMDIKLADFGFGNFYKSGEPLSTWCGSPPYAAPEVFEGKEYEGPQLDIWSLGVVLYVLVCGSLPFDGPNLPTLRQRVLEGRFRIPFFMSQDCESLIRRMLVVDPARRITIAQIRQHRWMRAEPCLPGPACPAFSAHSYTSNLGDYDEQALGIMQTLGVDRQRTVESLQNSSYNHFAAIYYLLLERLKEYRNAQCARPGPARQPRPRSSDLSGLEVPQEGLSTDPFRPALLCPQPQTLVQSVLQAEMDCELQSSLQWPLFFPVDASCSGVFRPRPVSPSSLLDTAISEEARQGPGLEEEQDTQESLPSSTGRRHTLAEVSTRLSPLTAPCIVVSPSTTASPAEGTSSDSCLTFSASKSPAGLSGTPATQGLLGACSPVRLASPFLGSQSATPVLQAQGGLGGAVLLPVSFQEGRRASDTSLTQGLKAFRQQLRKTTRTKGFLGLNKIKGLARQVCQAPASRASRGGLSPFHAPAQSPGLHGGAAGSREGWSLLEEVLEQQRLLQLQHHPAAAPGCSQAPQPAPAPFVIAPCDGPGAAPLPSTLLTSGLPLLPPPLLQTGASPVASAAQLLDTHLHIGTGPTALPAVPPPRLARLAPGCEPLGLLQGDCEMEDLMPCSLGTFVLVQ
In short: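 Wells with 1% DMSO or 10 μM staurosporine (final) define the control window. The kinase reaction with substrate and ATP runs 120 min at RT, followed by ADP-Glo detection: ATP depletion (40 min) and ADP-derived luminescence (30 min).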

T1 sequence (Q9H0K1 whole entry): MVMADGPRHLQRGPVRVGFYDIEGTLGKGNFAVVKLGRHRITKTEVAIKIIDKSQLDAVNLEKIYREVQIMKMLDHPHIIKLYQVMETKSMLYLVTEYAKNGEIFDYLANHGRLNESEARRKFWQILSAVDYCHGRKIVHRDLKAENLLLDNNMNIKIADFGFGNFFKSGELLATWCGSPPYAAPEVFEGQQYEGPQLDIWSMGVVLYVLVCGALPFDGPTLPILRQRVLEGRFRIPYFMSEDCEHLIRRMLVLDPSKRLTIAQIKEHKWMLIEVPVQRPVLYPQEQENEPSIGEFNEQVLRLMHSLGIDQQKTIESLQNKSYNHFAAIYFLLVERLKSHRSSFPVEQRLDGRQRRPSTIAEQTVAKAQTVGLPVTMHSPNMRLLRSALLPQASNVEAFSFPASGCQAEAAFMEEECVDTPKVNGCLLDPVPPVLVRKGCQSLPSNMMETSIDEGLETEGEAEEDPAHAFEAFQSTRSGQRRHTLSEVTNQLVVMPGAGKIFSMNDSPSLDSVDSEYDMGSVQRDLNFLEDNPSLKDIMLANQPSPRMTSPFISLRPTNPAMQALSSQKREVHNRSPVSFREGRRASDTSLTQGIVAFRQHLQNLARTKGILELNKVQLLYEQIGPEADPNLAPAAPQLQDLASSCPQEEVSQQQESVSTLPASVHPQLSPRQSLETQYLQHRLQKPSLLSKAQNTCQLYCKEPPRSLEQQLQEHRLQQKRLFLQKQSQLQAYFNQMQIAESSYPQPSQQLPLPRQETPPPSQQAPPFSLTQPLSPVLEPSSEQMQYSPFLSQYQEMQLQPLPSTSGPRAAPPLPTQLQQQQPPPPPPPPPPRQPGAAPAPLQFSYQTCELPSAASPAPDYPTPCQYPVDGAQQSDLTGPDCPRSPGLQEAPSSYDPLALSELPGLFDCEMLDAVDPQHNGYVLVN

Which results are given for `COc1cc(-c2cnc3cc(OCC(F)(F)CN)ccn23)cc(OC(F)F)c1C(=O)NC1CC1` [compound 364, 4-[7-(3-amino-2,2-difluoro-propoxy)imidazo[1,2-a]pyridin-3-yl]-N-cyclopropyl-2-(difluoromethoxy)-6-methoxy-benzamide]?
IC50 (SIK2): 0.01 to 10 nM; IC50 (SIK3): 0.01 to 10 nM; IC50 (SIK1): 10 to 100 nM

Which results are given for `CNCCOc1ccn2c(-c3cc4c(c(OC)c3)C(=O)N(CC(F)(F)F)CC4)cnc2c1` [compound 185, 8-methoxy-6-[7-[2-(methylamino)ethoxy]imidazo[1,2-a]pyridin-3-yl]-2-(2,2,2-trifluoroethyl)-3,4-dihydroisoquinolin-1-one]?
IC50 (SIK2): 0.01 to 10 nM; IC50 (SIK3): 0.01 to 10 nM; IC50 (SIK1): 100 to 500 nM

What does the source list for `COc1cc(-c2cnc3cc(OCCN4CCOC(C(F)(F)F)C4)ccn23)cc(OC(F)F)c1C(=O)NC1CC1` (stereo not drawn) [compound 179, N-cyclopropyl-2-(difluoromethoxy)-6-methoxy-4-[7-[2-[2-(trifluoromethyl)morpholin-4-yl]ethoxy]imidazo[1,2-a]pyridin-3-yl]benzamide]?
IC50 (SIK2): 0.01 to 10 nM; IC50 (SIK3): 0.01 to 10 nM; IC50 (SIK1): 10 to 100 nM

What does the source list for `COc1cc(-c2cnc3cc(OCC(C)(C)CO)ccn23)cc(OC(F)F)c1C(=O)NC1CC1` [compound 74, N-cyclopropyl-2-(difluoromethoxy)-4-[7-(3-hydroxy-2,2-dimethyl-propoxy)imidazo[1,2-a]pyridin-3-yl]-6-methoxy-benzamide]?
IC50 (SIK2): 0.01 to 10 nM; IC50 (SIK3): 0.01 to 10 nM; IC50 (SIK1): 10 to 100 nM

`COc1cc(-c2cnc3cc(OCCN(C)c4ccncn4)ccn23)cc(OC(F)F)c1C(=O)NC1CC1` [compound 239, N-cyclopropyl-2-(difluoromethoxy)-6-methoxy-4-[7-[2-[methyl(pyrimidin-4-yl)amino]ethoxy]imidazo [1,2-a]pyridin-3-yl]benzamide] was tested. Which IC50 (SIK2) did it give?
The IC50 was 0.01 to 10 nM.

And the IC50 (SIK3)?
The IC50 was 0.01 to 10 nM.

And the IC50 (SIK1)?
The IC50 was 0.01 to 10 nM.

Which IC50 (SIK2) does the source give for `COc1cc(-c2cnc3cc(OCCCN)ccn23)cc(OC(F)F)c1C(=O)NC1CC1` [compound 115, 4-[7-(3-aminopropoxy)imidazo [1,2-a]pyridin-3-yl]-N-cyclopropyl-2-(difluoromethoxy)-6-methoxy-benzamide] here?
The IC50 was 0.01 to 10 nM.

What about the IC50 (SIK3) of the same compound?
The IC50 was 0.01 to 10 nM.

What about the IC50 (SIK1) of the same compound?
The IC50 was 10 to 100 nM.

Which IC50 (SIK2) does the source give for `COc1cc(-c2cnc3cc(OCCCN4CC5(CCS5(=O)=O)C4)ccn23)cc(OC(F)F)c1C(=O)NC1CC1` [compound 332, N-cyclopropyl-2-(difluoromethoxy)-4-[7-[3-(1,1-dioxo-1λ^6-thia-6-azaspiro[3.3]heptan-6-yl)propoxy]imidazo[1,2-a]pyridin-3-yl]-6-methoxy-benzamide] here?
Its IC50 is 0.01 to 10 nM.

What about the IC50 (SIK3) of the same compound?
Its IC50 is 0.01 to 10 nM.

And the IC50 (SIK1)?
Its IC50 is 10 to 100 nM.

How did the IC50 (SIK2) turn out when `O=C1c2ncc(-c3cnc4cc(OCCN5CCOCC5)ccn34)cc2CN1CC(F)(F)F` [Cpd 266, 3-[7-(2-morpholinoethoxy)imidazo [1,2-a]pyridin-3-yl]-6-(2,2,2-trifluoroethyl)-5H-pyrrolo[3,4-b]pyridin-7-one] was run?
Its IC50 is greater than 500 nM.

What about the IC50 (SIK3) of the same compound?
Its IC50 is greater than 500 nM.

And the IC50 (SIK1)?
The IC50 was greater than 500 nM.

What does the source list for `CCOC(=O)C1CCCN(CCOc2ccn3c(-c4cc(OC)c(C(=O)NC5CC5)c(OC(F)F)c4)cnc3c2)C1` (stereo not drawn) [compound 392, ethyl 1-[2-[3-[4-(cyclopropylcarbamoyl)-3-(difluoromethoxy)-5-methoxy-phenyl]imidazo[1,2-a]pyridin-7-yl]oxyethyl]piperidine-3-carboxylate]?
IC50 (SIK2): 0.01 to 10 nM; IC50 (SIK3): 0.01 to 10 nM; IC50 (SIK1): 10 to 100 nM

Which IC50 (SIK2) does the source give for `COc1cc(-c2cnc3cc(OC4(C#N)CCCC4)ccn23)cc(OC(F)F)c1C(=O)NC1CC1` [Cpd 255, 4-[7-(1-cyanocyclopentoxy)imidazo[1,2-a]pyridin-3-yl]-N-cyclopropyl-2-(difluoromethoxy)-6-methoxy-benzamide] here?
The IC50 was 100 to 500 nM.

And the IC50 (SIK3)?
Its IC50 is 10 to 100 nM.

And the IC50 (SIK1)?
Its IC50 is greater than 500 nM.

`COc1cc(-c2cnc3cc(OCCN(CC(F)F)C4CC4)ccn23)cc(OC(F)F)c1C(=O)NC1CC1` [compound 235, N-cyclopropyl-4-[7-[2-[cyclopropyl (2,2-difluoroethyl)amino]ethoxy]imidazo [1,2-a]pyridin-3-yl]-2-(difluoromethoxy)-6-methoxy-benzamide] was tested. Which IC50 (SIK2) did it give?
Its IC50 is 0.01 to 10 nM.

What about the IC50 (SIK3) of the same compound?
The IC50 was 0.01 to 10 nM.

And the IC50 (SIK1)?
Its IC50 is 0.01 to 10 nM.

What does the source list for `COc1cc(-c2cnc3cc(OCc4cocn4)ccn23)cc(OC(F)F)c1C(=O)NC1CC1` [compound 60, N-cyclopropyl-2-(difluoromethoxy)-6-methoxy-4-[7-(oxazol-4-ylmethoxy)imidazo[1,2-a]pyridin-3-yl]benzamide]?
IC50 (SIK2): 0.01 to 10 nM; IC50 (SIK3): 0.01 to 10 nM; IC50 (SIK1): 10 to 100 nM

With `COc1cc(-c2cnc3cc(OCCCN4CCn5ncnc5C4)ccn23)cc(OC(F)F)c1C(=O)NC1CC1` [compound 313, N-cyclopropyl-2-(difluoromethoxy)-4-[7-[3-(6,8-dihydro-5H-[1,2,4]triazolo[1,5-a]pyrazin-7-yl)propoxy]imidazo[1,2-a]pyridin-3-yl]-6-methoxy-benzamide] as the compound, how does the IC50 (SIK2) read?
The IC50 was 0.01 to 10 nM.

And the IC50 (SIK3)?
The IC50 was 0.01 to 10 nM.

What about the IC50 (SIK1) of the same compound?
The IC50 was 10 to 100 nM.

Which results are given for `CNC(C)(C)COc1ccn2c(-c3cc(OC)c(C(=O)NC4CC4)c(OC(F)F)c3)cnc2c1` [Cpd 153, N-cyclopropyl-2-(difluoromethoxy)-6-methoxy-4-[7-[2-methyl-2-(methylamino)propoxy]imidazo[1,2-a]pyridin-3-yl]benzamide]?
IC50 (SIK2): 0.01 to 10 nM; IC50 (SIK3): 0.01 to 10 nM; IC50 (SIK1): 100 to 500 nM

For `COc1cc(-c2cnc3cc(OCc4cc(C)nn4C)ccn23)cc(OC(F)F)c1C(=O)NC1CC1` [compound 198, N-cyclopropyl-2-(difluoromethoxy)-4-[7-[(2,5-dimethylpyrazol-3-yl)methoxy]imidazo[1,2-a]pyridin-3-yl]-6-methoxy-benzamide], which IC50 (SIK2) is on record?
The IC50 was 0.01 to 10 nM.

And the IC50 (SIK3)?
Its IC50 is 0.01 to 10 nM.

What about the IC50 (SIK1) of the same compound?
The IC50 was 10 to 100 nM.

For `COc1cc(-c2cnc3cc(OCCCN4CCCC(C#N)C4)ccn23)cc(OC(F)F)c1C(=O)NC1CC1` (stereo not drawn) [compound 346, 4-[7-[3-(3-cyano-1-piperidyl)propoxy]imidazo [1,2-a]pyridin-3-yl]-N-cyclopropyl-2-(difluoromethoxy)-6-methoxy-benzamide], which IC50 (SIK2) is on record?
Its IC50 is 0.01 to 10 nM.

And the IC50 (SIK3)?
The IC50 was 0.01 to 10 nM.

And the IC50 (SIK1)?
Its IC50 is 10 to 100 nM.

`CCOCCOc1cc(-c2cnc3cc(OCCN(C)C)ccn23)cc(OC)c1C(=O)NC1CC1` [Cpd 56, N-cyclopropyl-4-[7-[2-(dimethylamino)ethoxy]imidazo [1,2-a]pyridin-3-yl]-2-(2-ethoxyethoxy)-6-methoxy-benzamide] was tested. Which IC50 (SIK2) did it give?
The IC50 was 100 to 500 nM.

What about the IC50 (SIK3) of the same compound?
Its IC50 is 100 to 500 nM.

What about the IC50 (SIK1) of the same compound?
Its IC50 is greater than 500 nM.

How did the IC50 (SIK2) turn out when `COc1cc(-c2cnc3cc(OCCN4CCCC(C#N)C4)ccn23)cc(OC(F)F)c1C(=O)NC1CC1` (stereo not drawn) [compound 216, 4-[7-[2-(3-cyano-1-piperidyl)ethoxy]imidazo [1,2-a]pyridin-3-yl]-N-cyclopropyl-2-(difluoromethoxy)-6-methoxy-benzamide] was run?
Its IC50 is 0.01 to 10 nM.

And the IC50 (SIK3)?
The IC50 was 0.01 to 10 nM.

What about the IC50 (SIK1) of the same compound?
Its IC50 is 0.01 to 10 nM.

Which IC50 (SIK2) does the source give for `COc1cc(-c2cnc3cc(OCCN4CC5CCC(C4)O5)ccn23)cc(OC(F)F)c1C(=O)NC1CC1` [compound 195, N-cyclopropyl-2-(difluoromethoxy)-6-methoxy-4-[7-[2-(8-oxa-3-azabicyclo [3.2.1]octan-3-yl)ethoxy]imidazo[1,2-a]pyridin-3-yl]benzamide] here?
The IC50 was 0.01 to 10 nM.

And the IC50 (SIK3)?
The IC50 was 0.01 to 10 nM.

And the IC50 (SIK1)?
The IC50 was 10 to 100 nM.

Which results are given for `COc1cc(-c2cnc3cc(OCCN4CCOCC4(C)C)ccn23)cc(OC(F)F)c1C(=O)NC1CC1` [compound 192, N-cyclopropyl-2-(difluoromethoxy)-4-[7-[2-(3,3-dimethylmorpholin-4-yl)ethoxy]imidazo[1,2-a]pyridin-3-yl]-6-methoxy-benzamide]?
IC50 (SIK2): 0.01 to 10 nM; IC50 (SIK3): 0.01 to 10 nM; IC50 (SIK1): 10 to 100 nM

For `COc1cc(-c2cnc3cc(OCCOCCN(C)C)ccn23)cc(OC(F)F)c1C(=O)NC1CC1` [compound 65, N-cyclopropyl-2-(difluoromethoxy)-4-[7-[2-[2-(dimethylamino)ethoxy]ethoxy]imidazo[1,2-a]pyridin-3-yl]-6-methoxy-benzamide], which IC50 (SIK2) is on record?
The IC50 was 0.01 to 10 nM.

And the IC50 (SIK3)?
The IC50 was 0.01 to 10 nM.

What about the IC50 (SIK1) of the same compound?
The IC50 was 0.01 to 10 nM.

`COc1cc(-c2cnc3cc(OCC4CN(C)CCO4)ccn23)cc(OC(F)F)c1C(=O)NC1CC1` (stereo not drawn) [compound 82, N-cyclopropyl-2-(difluoromethoxy)-6-methoxy-4-[7-[(4-methylmorpholin-2-yl)methoxy]imidazo[1,2-a]pyridin-3-yl]benzamide] was tested. Which IC50 (SIK2) did it give?
The IC50 was 0.01 to 10 nM.

And the IC50 (SIK3)?
The IC50 was 0.01 to 10 nM.

What about the IC50 (SIK1) of the same compound?
The IC50 was 10 to 100 nM.

Which results are given for `COC(=O)C1(COc2ccn3c(-c4cc(OC)c(C(=O)NC5CC5)c(OC(F)F)c4)cnc3c2)CC1` [compound 57, methyl 1-[[3-[4-(cyclopropylcarbamoyl)-3-(difluoromethoxy)-5-methoxy-phenyl]imidazo[1,2-a]pyridin-7-yl]oxymethyl] cyclopropanecarboxylate]?
IC50 (SIK2): 0.01 to 10 nM; IC50 (SIK3): 0.01 to 10 nM; IC50 (SIK1): 10 to 100 nM

`COc1cc(-c2cnc3cc(OCC4CC4)ccn23)cc(OC(F)F)c1C(=O)NC1CC1` [compound 96, N-cyclopropyl-4-[7-(cyclopropylmethoxy)imidazo[1,2-a]pyridin-3-yl]-2-(difluoromethoxy)-6-methoxy-benzamide] was tested. Which IC50 (SIK2) did it give?
The IC50 was 0.01 to 10 nM.

What about the IC50 (SIK3) of the same compound?
The IC50 was 0.01 to 10 nM.

And the IC50 (SIK1)?
Its IC50 is 10 to 100 nM.

`COc1cc(-c2cnc3cc(OCC(F)(F)F)ccn23)cc(OC(F)F)c1C(=O)NC1CC1` [compound 91, N-cyclopropyl-2-(difluoromethoxy)-6-methoxy-4-[7-(2,2,2-trifluoroethoxy)imidazo [1,2-a]pyridin-3-yl]benzamide] was tested. Which IC50 (SIK2) did it give?
The IC50 was 0.01 to 10 nM.

What about the IC50 (SIK3) of the same compound?
The IC50 was 0.01 to 10 nM.

What about the IC50 (SIK1) of the same compound?
The IC50 was 10 to 100 nM.

Which IC50 (SIK2) does the source give for `COc1cc(-c2cnc3cc(OC4CCCN(C)C4)ccn23)cc(OC)c1C(=O)NCC(F)(F)F` (stereo not drawn) [Cpd 5, 2,6-dimethoxy-4-[7-[(1-methyl-3-piperidyl)oxy]imidazo[1,2-a]pyridin-3-yl]-N-(2,2,2-trifluoroethyl)benzamide] here?
Its IC50 is 100 to 500 nM.

And the IC50 (SIK3)?
The IC50 was 10 to 100 nM.

What about the IC50 (SIK1) of the same compound?
Its IC50 is greater than 500 nM.
